Test results reported in PMC6274122, “Antibacterial Activity and Cytotoxicity of Silver(I) Complexes of Pyridine and (Benz)Imidazole Derivatives. X-ray Crystal Structure of [Ag(2,6-di(CH2OH)py)2]NO3” (Molecules, 2016).
Where two headings read alike, the source gives them in different places.

How the values were obtained:
[1] = Broth microdilution MIC of free ligands, strain not specified; assay type: cell-based; conditions: Proteus hauseri, ATCC 13315 / ATCC 15442 / ATCC 25922; free ligands tested up to 500 mg/L
Experimental: (§1) The antimicrobial susceptibility testing of synthesized complexes, free ligands, and references compounds (AgNO3 and AgSD) was performed against three Gram-negative strains: Eschericha coli ATCC 25922, Proteus hauseri ATCC 13315, and Pseudomanos aeruginosa ATCC 15442. The minimum inhibitory concentration (MIC) and minimum bactericidal concentration (MBC) were determined by a modified broth microdilution method according to the recommendation of Clinical and Laboratory Standards Institute (CLSI M07-A8). In the experiments the Mueller-Hinton broth was used, the final organism density was about 5 × 10^5 CFU/mL and the tests were performed 20 h at 37 °C. The studied compounds were dissolved in water (1, 3, 4, 6, and the ligands [except 2-CH2OHbim]) or in DMSO (2, 5, and 2-CH2OHbim), and the appropriate amounts were added to samples (to biotic controls was added pure solvent). The compounds were tested in concentration ranging from 0 mg/L to 100 mg/L, except free ligands which were tested up to 500 mg/L.

[2] = tested on: Escherichia coli ATCC 25922; test: Broth microdilution MIC/MBC (CLSI M07-A8), E. coli; assay type: cell-based; conditions: for MBC (minimum bactericidal concentration): E. coli ATCC 25992; for MIC (minimum inhibitory concentration): Mueller-Hinton broth, 20 h at 37 °C, triplicate (SD = 0)
Experimental: as §1

[3] = tested on: Proteus hauseri ATCC 13315; test: Broth microdilution MIC/MBC (CLSI M07-A8), P. hauseri; assay type: cell-based; conditions: for MBC (minimum bactericidal concentration): P. hauseri ATCC 13315; for MIC (minimum inhibitory concentration): P. hauseri, Mueller-Hinton broth, 20 h at 37 °C, triplicate (SD = 0)
Experimental: as §1

[4] = tested on: Pseudomonas aeruginosa ATCC 15442; test: Broth microdilution MIC/MBC (CLSI M07-A8), P. aeruginosa; assay type: cell-based; conditions: for MBC (minimum bactericidal concentration): P. aeruginosa ATCC 15442; for MIC (minimum inhibitory concentration): Mueller-Hinton broth, 20 h at 37 °C, triplicate (SD = 0)
Experimental: as §1

[5] = tested on: B16 (murine melanoma) cells; test: MTT cytotoxicity assay, B16 cells; assay type: cell-based; conditions: 72 h incubation, three independent experiments, read-out: IC50 (concentration causing 50% reduction of cellular viability)
Experimental: The B16 (murine melanoma) cells and C3H10T1/2 (mouse fibroblast) cells were seeded 7 × 10^3 (B16) and 3 × 10^4 (10T1/2) per well/24 well plate into a medium containing DMEM GlutaMAX (Thermo Fisher Scientific, Waltham, MA USA), 10% bovine serum (Lonza, San Diego, CA, USA) added, and Antibiotic Antimicotic Solution 1:100 (Sigma-Aldrich). The plates were stored in a humidified incubator at 37 °C, 5% CO2. After 24 h, the cells were treated with the following compounds: compounds 1–6, free ligands, AgNO3, and AgSD (except control cells—wells without tested compound). Silver complexes 1, 3, 4, 6, and AgNO3 were dissolved in water. Complexes 2, 5, and AgSD are DMSO-soluble. Next, all chemicals were diluted into water to make a concentration 1, 0.1, 0.01 mg/mL and as a working solution were added to the medium. After 72 h of incubation, the cells were washed and incubated with 0.25 mg/mL MTT (Sigma-Aldrich) solution and were incubated for another 3 h. Isopropanol was added to dissolve the formazan crystals. Absorbance at 540 and 690 nm was read using Epoch Software version 2.01.14 (Bio-Tek, Winooski, VT, USA).

E. coli ATCC 8739 = tested on: E. coli ATCC 8739; set-up: method as in PMID 24218046; conditions: cited from earlier work
P. aeruginosa ATCC 27853 = tested on: P. aeruginosa ATCC 27853; set-up: method as in PMID 24218046; conditions: cited from earlier work
[6] = tested on: three Gram-negative strains: Eschericha coli ATCC 25922, Proteus hauseri ATCC 13315, and Pseudomanos aeruginosa ATCC 15442; test: Broth microdilution MIC of free ligands, strain not specified; assay type: cell-based; conditions: free ligands tested up to 500 mg/L
Experimental: as §1

[7] = tested on: Escherichia coli ATCC 25922; set-up: method as in PMID 25846722; conditions: cited from earlier work
[8] = tested on: Proteus hauseri ATCC 13315; set-up: method as in PMID 25846722; conditions: cited from earlier work
[9] = tested on: Pseudomonas aeruginosa ATCC 15442; set-up: method as in PMID 25846722; conditions: cited from earlier work
B16 cells = tested on: B16 cells; set-up: method as in doi:10.1039/a702757e; conditions: cited from earlier work

Compound: OCc1cccc(CO)n1 [2,6-di(CH2OH)py, 2,6-di(hydroxymethyl)-pyridine]
- MIC [1]: > 500 µg/mL

Compound: O=[N+]([O-])[O-].[Ag+] [AgNO3, silver nitrate, reference compound]
- MBC (minimum bactericidal concentration) [2]: 177 µM
- MIC (minimum inhibitory concentration) ([2]; E. coli): 118 µM
- MBC (minimum bactericidal concentration) [3]: 177 µM
- MIC (minimum inhibitory concentration) [3]: 118 µM
- MBC (minimum bactericidal concentration) [4]: 59 µM
- MIC (minimum inhibitory concentration) ([4]; P. aeruginosa): 59 µM
- IC50 [5]: 9.74 µM

Compound: CCOP(=O)(OCC)OCc1nc2ccccc2[nH]1.CCOP(=O)(OCC)OCc1nc2ccccc2[nH]1.O=[N+]([O-])O.[Ag] [Complex 2, [Ag(2-bimOpe)2]NO3]
- MBC (minimum bactericidal concentration) [2]: 54 µM
- MIC (minimum inhibitory concentration) ([2]; E. coli): 27 µM
- MBC (minimum bactericidal concentration) [3]: 41 µM
- MIC (minimum inhibitory concentration) [3]: 27 µM
- MBC (minimum bactericidal concentration) [4]: 27 µM
- MIC (minimum inhibitory concentration) ([4]; P. aeruginosa): 14 µM
- MIC (E. coli ATCC 8739): 21.2 µM
- MIC (P. aeruginosa ATCC 27853): 5.3 µM

Compound: CCOP(=O)(OCC)OCc1nc2ccccc2[nH]1 [Complex 2-bimOpe]
- MIC values of the free ligands [6]: > 500 mg/L^−1

Compound: O=[N+]([O-])[O-].OCc1cccc(CO)n1.OCc1cccc(CO)n1.[Ag+] [Complex 3, [Ag(2,6-di(CH2OH)py)2]NO3]
- MBC (minimum bactericidal concentration) [2]: 67 µM
- MIC (minimum inhibitory concentration) ([2]; E. coli): 67 µM
- MBC (minimum bactericidal concentration) [3]: 112 µM
- MIC (minimum inhibitory concentration) [3]: 67 µM
- MBC (minimum bactericidal concentration) [4]: 67 µM
- MIC (minimum inhibitory concentration) ([4]; P. aeruginosa): 45 µM

Compound: O=[N+]([O-])[O-].OCc1ccncc1.OCc1ccncc1.[Ag+] [Complex 4, [Ag(4-CH2OHpy)2]NO3]
- MBC (minimum bactericidal concentration) [2]: 77 µM
- MIC (minimum inhibitory concentration) ([2]; E. coli): 52 µM
- MBC (minimum bactericidal concentration) [3]: 77 µM
- MIC (minimum inhibitory concentration) [3]: 52 µM
- MBC (minimum bactericidal concentration) [4]: 52 µM
- MIC (minimum inhibitory concentration) ([4]; P. aeruginosa): 26 µM

Compound: OCc1ccncc1 [Complex 4-CH2OHpy]
- MIC [1]: > 500 µg/mL

Compound: CCOP(=O)(OCC)OCc1ccncc1 [Complex 4-pmOpe]
- MIC values of the free ligands [6]: > 500 mg/L^−1

Compound: O=[N+]([O-])[O-].OCc1nc2ccccc2[nH]1.OCc1nc2ccccc2[nH]1.[Ag+] [Complex 5, [Ag(2-CH2OHbim)2]NO3]
- MBC (minimum bactericidal concentration) [2]: 21 µM
- growth-inhibiting concentration, fold lower than that of AgSD ([2]; E. coli, MIC relative to AgSD): 2.6 fold
- MIC (minimum inhibitory concentration) ([2]; E. coli): 21 µM
- MBC (minimum bactericidal concentration) [3]: 43 µM
- MIC (minimum inhibitory concentration) [3]: 21 µM
- MBC (minimum bactericidal concentration) [4]: 21 µM
- growth-inhibiting concentration, fold lower than that of AgSD ([4]; P. aeruginosa, MIC relative to AgSD): 2.6 fold
- MIC (minimum inhibitory concentration) ([4]; P. aeruginosa): 21 µM

Compound: Cc1ncc([N+](=O)[O-])n1CCO.Cc1ncc([N+](=O)[O-])n1CCO.O=[N+]([O-])[O-].[Ag+] [Complex 6, [Ag(MTZ)2NO3]]
- MBC (minimum bactericidal concentration) ([7]; E. coli ATCC 25992): 98 µM
- MIC (minimum inhibitory concentration) ([7]; E. coli): 98 µM
- MBC (minimum bactericidal concentration) ([8]; P. hauseri ATCC 13315): 117 µM
- MIC (minimum inhibitory concentration) ([8]; P. hauseri): 98 µM
- MBC (minimum bactericidal concentration) ([9]; P. aeruginosa ATCC 15442): 117 µM
- MIC (minimum inhibitory concentration) ([9]; P. aeruginosa): 59 µM

Compound: N.N.[Cl][Pt][Cl] [cis-DDP, cisplatin]
- IC50 [5]: 7.87 µM
- IC50 (B16 cells): 0.9 µM

Compound: {[Ag(4-pmOpe)]NO3}n [Complex 1]
- MBC (minimum bactericidal concentration) [2]: 145 µM
- MIC (minimum inhibitory concentration) ([2]; E. coli): 96 µM
- MBC (minimum bactericidal concentration) [3]: 120 µM
- MIC (minimum inhibitory concentration) [3]: 72 µM
- MBC (minimum bactericidal concentration) [4]: 72 µM
- MIC (minimum inhibitory concentration) ([4]; P. aeruginosa): 48 µM
- IC50 [5]: 13 µM
- MIC (E. coli ATCC 8739): 37.6 µM
- MIC (P. aeruginosa ATCC 27853): 37.6 µM
